Earlier results, collected in patent publication US20230285286A1, “DRUG VEHICLE COMPOSITIONS AND METHODS OF USE THEREOF” (PS Therapy, Inc., priority 2016, published 2023).
Where a name gives a salt, the structure may show the parent alone.

Legend:
[1] = deionized water at 25° C.

Compound	LogP Value	Solubility in Water (PPM) [1] [PPM]
CN1CCC(=C2c3ccccc3CCn3c(C=O)cnc32)CC1 [Alcaftadine]	3.2	17
CN1CCCC(n2nc(Cc3ccc(Cl)cc3)c3ccccc3c2=O)CC1 (centres unmarked) [Azelastine HCl]	3.81	35
CC[C@H]1OC(=O)[C@H](C)[C@@H](O[C@H]2C[C@@](C)(OC)[C@@H](O)[C@H](C)O2)[C@H](C)[C@@H](O[C@@H]2O[C@H](C)C[C@H](N(C)C)[C@H]2O)[C@](C)(O)C[C@@H](C)CN(C)[C@H](C)[C@@H](O)[C@]1(C)O [Azithromycin]	3.03	2.37
O=C(O)CCCN1CCC(O[C@@H](c2ccc(Cl)cc2)c2ccccn2)CC1.O=S(=O)(O)c1ccccc1 [Bepotastine Besilate]	–	50
N[C@@H]1CCCCN(c2c(F)cc3c(=O)c(C(=O)O)cn(C4CC4)c3c2Cl)C1 [Besifloxacin]	0.54	0
CC(C)NCC(O)COc1ccc(CCOCC2CC2)cc1 (centres unmarked) [Betaxolol HCl]	3	17190
CCNC(=O)CCC/C=C\C[C@@H]1[C@@H](/C=C/[C@@H](O)CCc2ccccc2)[C@H](O)C[C@@H]1O [Bimatoprost]	3.2	19
Brc1c(NC2=NCCN2)ccc2nccnc12 [Brimonidine]	–	150
CCN[C@H]1CN(CCCOC)S(=O)(=O)c2sc(S(N)(=O)=O)cc21 [Brinzolamide]	-1.8	713
Nc1c(CC(=O)O)cccc1C(=O)c1ccc(Br)cc1 [Bromfenac]	3.4	12
O=C(O)c1cc(=O)c2c(OCC(O)COc3cccc4oc(C(=O)O)cc(=O)c34)cccc2o1 [Cromolyn Sodium]	4.8	100000
CCCC(=O)O[C@]1(C(=O)COC(C)=O)CC[C@H]2[C@@H]3C[C@H](F)C4=CC(=O)C=C[C@]4(C)[C@@]3(F)[C@@H](O)C[C@@]21C [Difluprednate]	3.28	1
CCN[C@H]1C[C@H](C)S(=O)(=O)c2sc(S(N)(=O)=O)cc21 [Dorzolamide]	-1	699
CCOCCn1c(N2CCCN(C)CC2)nc2ccccc21 [Emedastine Difumarate]	2.6	1440
NC1=NCC2c3ccccc3Cc3ccccc3N12 (centres unmarked) [Epinastine HCl]	2.34	–
CC[C@H]1OC(=O)[C@H](C)[C@@H](O[C@H]2C[C@@](C)(OC)[C@@H](O)[C@H](C)O2)[C@H](C)[C@@H](O[C@@H]2O[C@H](C)C[C@H](N(C)C)[C@H]2O)[C@](C)(O)C[C@@H](C)C(=O)[C@H](C)[C@@H](O)[C@]1(C)O [Erythromycin]	2.6	2000
CC(=O)O[C@]1(C(C)=O)CC[C@H]2[C@@H]3C[C@H](C)C4=CC(=O)C=C[C@]4(C)[C@@]3(F)[C@@H](O)C[C@@]21C [Fluorometholone Acetate]	–	6.27
CC(C(=O)O)c1ccc(-c2ccccc2)c(F)c1 (centres unmarked) [Flurbiprofen]	–	5
CC(C)Cc1ccc(C(C)C(=O)O)cc1 (centres unmarked) [Ibuprofen]	–	21
O=C(c1ccccc1)c1ccc2n1CCC2C(=O)O (centres unmarked) [Ketorolac Tromethamine]	-0.92	861

Compound	LogP Value	Solubility in Water (PPM) [1] [PPM]
CN1CCC(=C2c3ccccc3CC(=O)c3sccc32)CC1 [Ketotifen Fumarate]	3.49	7.87
CC(C)OC(=O)CCC/C=C\C[C@@H]1[C@@H](CC[C@@H](O)CCc2ccccc2)[C@H](O)C[C@@H]1O [Latanoprost]	–	1.29
CC(C)(C)NC[C@H](O)COc1cccc2c1CCCC2=O [Levobunolol HCl]	–	251
N#Cc1cc(NC(=O)C(=O)O)c(Cl)c(NC(=O)C(=O)O)c1.NC(CO)(CO)CO.NC(CO)(CO)CO [Lodoxamide Tromethamine]	0.72	36.1
CCOC(=O)O[C@]1(C(=O)OCCl)CC[C@H]2[C@@H]3CCC4=CC(=O)C=C[C@]4(C)[C@H]3[C@@H](O)C[C@@]21C [Loteprednol Etabonate]	3.4	0.5
COc1c(N2C[C@@H]3CCCN[C@@H]3C2)c(F)cc2c(=O)c(C(=O)O)cn(C3CC3)c12 [Moxifloxacin]	–	1146
CCCc1c2oc(C(=O)O)cc(=O)c2cc2c(=O)cc(C(=O)O)n(CC)c12 [Nedocromil Sodium]	2.82	80.8
NC(=O)Cc1cccc(C(=O)c2ccccc2)c1N [Nepafenac]	1.53	14
CN(C)CC/C=C1/c2ccccc2COc2ccc(CC(=O)O)cc21 [Olopatadine HCl]	3.4	31.3
CC(=O)OCC(=O)[C@@]1(O)CC[C@H]2[C@@H]3CCC4=CC(=O)C=C[C@]4(C)[C@H]3[C@@H](O)C[C@@]21C [Prednisolone Acetate]	1.332	–
CCC(=O)[C@@]1(C)[C@H](C)C[C@H]2[C@@H]3CCC4=CC(=O)C=C[C@]4(C)[C@H]3[C@@H](O)C[C@@]21C [Rimexolone]	4.2	0
C=CC[C@@H]1/C=C(\C)C[C@H](C)C[C@H](OC)[C@H]2O[C@@](O)(C(=O)C(=O)N3CCCC[C@H]3C(=O)O[C@H](/C(C)=C/[C@@H]3CC[C@@H](O)[C@H](OC)C3)[C@H](C)[C@@H](O)CC1=O)[C@H](C)C[C@@H]2OC [Tacrolimus]	5.59	12
CC(C)OC(=O)CCC/C=C\C[C@@H]1[C@@H](/C=C/C(F)(F)COc2ccccc2)[C@H](O)C[C@@H]1O [Tafluprost]	4.05	0
CC(C)(C)NC[C@H](O)COc1nsnc1N1CCOCC1 [Timolol Maleate]	–	5000
NC[C@H]1O[C@H](O[C@H]2[C@H](O)[C@@H](O[C@H]3O[C@H](CO)[C@@H](O)[C@H](N)[C@H]3O)[C@H](N)C[C@@H]2N)[C@H](N)C[C@@H]1O [Tobramycin]	-5.8	10000
CC(C)OC(=O)CCC/C=C\C[C@@H]1[C@@H](/C=C/[C@@H](O)COc2cccc(C(F)(F)F)c2)[C@H](O)C[C@@H]1O [Travoprost]	4.6	16000
COc1cc(Cc2cnc(N)nc2N)cc(OC)c1OC [Trimethoprim]	–	999
Gentamicin	-3.1	–
Gramicidin	–	6
Polymyxin B	–	0
